How the values were obtained:
[1] = system: Escherichia coli, Staphylococcus aureus and Pseudomonas aeruginosa strains; experiment: Chessboard technique, summary statements over all strains and combinations tested; format: cell-based; settings: strain not stated
In short: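 Checkerboard of 64 antibiotic/Cx1 concentration combinations per strain. FIC index classed as synergy (≤0.5), additive (>0.5–1), indifferent (>1–4) or antagonism (>4). Each strain and combination tested at least 3 times.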

[2] = system: EcR3: ESBL-Producing Escherichia coli; experiment: Antibiogram by the disk diffusion technique; format: cell-based
Method: The bacterial and antibiogramidentification is carried out by the VITEK 2 system (bioMerieux) and by the disk diffusion technique

[3] = system: SaR1: Meticillin-Resistant Staphylococcus aureus without Associated Resistance; experiment: Antibiogram, inhibition diameter (Table D1); format: cell-based
Method: (§1) The bacterial and antibiogramidentification is carried out by the VITEK 2 system (bioMérieux)

[4] = system: EcR1: Penicillinase-Producing Escherichia coli without Associated Resistance; experiment: Antibiogram by the disk diffusion technique; format: cell-based; settings: Table A1
Method: (§2) 5.1 EcR1: Penicillinase-Producing Escherichia coli without Associated Resistance The bacterial and antibiogramidentification is carried out by the VITEK 2 system (bioMérieux) and by the disk diffusion technique.

[5] = system: SaR4: Meticillin-Resistant Staphylococcus aureus; experiment: Antibiogram by the disk diffusion technique; format: cell-based
Method: (§3) The bacterial and antibiogramidentification is carried out by the VITEK 2 system (bioMérieux) and by the disk diffusion technique

[6] = system: PaR5: Pseudomonas aeruginosa; experiment: Antibiogram by the disk diffusion technique; format: cell-based
Method: as §3

[7] = system: SaR3: Meticillin-Resistant Staphylococcus aureus; experiment: Antibiogram by the disk diffusion technique; format: cell-based
Method: as §3

[8] = system: cephalosporinase-hyperproducing strain of Escherichia coli (EcR2); experiment: MIC of the compounds used alone, microdilution in a liquid medium (CLSI); format: cell-based; settings: antibiotic alone (second value of cell)
Text: (§4) The MICs of the antibiotics were previously defined for each strain, by the method of microdilution in a liquid medium (CLSI (Clinical and Laboratory Standards Institute), 2003).

[9] = system: ESBL-producing strain of Escherichia coli, having an associated resistance to the aminoglycosides (EcR3); experiment: as above; format: cell-based; settings: antibiotic alone (second value of cell)
Text: as §4

[10] = system: penicillinase-producing strain of Escherichia coli without associated resistance (EcR1); experiment: as above; format: cell-based; settings: antibiotic alone (second value of cell)
Text: as §4

[11] = system: Staphylococcus aureus strain ATCC 29213 (wild type); experiment: as above; format: cell-based; settings: antibiotic alone (second value of cell); S. aureus ATCC 29213
Text: as §4

[12] = system: Escherichia coli strain ATCC 25922 (wild type); experiment: as above; format: cell-based; settings: antibiotic alone (second value of cell); E. coli ATCC 25922
Text: as §4

[13] = system: EcR1: Penicillinase-Producing Escherichia coli without Associated Resistance; experiment: Antibiogram, MIC by the VITEK 2 system; format: cell-based
Method: as §2

[14] = system: PaR2: Pseudomonas aeruginosa; format: cell-based
Method: as §3

[15] = system: MRSA strain having a resistance to the aminoglycosides and fluoroquinolones (SaR3); experiment: MIC of the compounds used alone, microdilution in a liquid medium (CLSI); format: cell-based, Staphylococcus aureus; settings: antibiotic alone (second value of cell); SaR3
Text: as §4

[16] = system: MRSA strain having a resistance to the aminoglycosides, fluoroquinolones, macrolides-lincosamides-synergistins and ofloxacin (SaR4); experiment: as above; format: cell-based, Staphylococcus aureus; settings: antibiotic alone (second value of cell); SaR4
Text: as §4

[17] = system: MRSA strain without associated resistance (SaR1); experiment: as above; format: cell-based, Staphylococcus aureus; settings: antibiotic alone (second value of cell); SaR1
Text: as §4

[18] = system: SaR1: Meticillin-Resistant Staphylococcus aureus without Associated Resistance; experiment: Antibiogram, MIC by the VITEK 2 system; format: cell-based; settings: SaR1
Method: as §1

[19] = system: PaR3: Pseudomonas aeruginosa; experiment: Antibiogram, MIC by the VITEK 2 system; format: cell-based
Method: as §1

[20] = system: EcR2: Cephalosporinase-Hyperproducing Strain of Escherichia coli; experiment: Antibiogram by the disk diffusion technique; format: cell-based
Method: The bacterial and antibiogramidentification is carried out by the VITEK 1 system (bioMérieux) and by the disk diffusion technique

## Gentamicin
[1]
  interaction between the antibiotic and Cx1: synergism
[2]; Cd CA-SFM 2011
  CA-SFM Interpretation: Resistant
[2]; Cd CLSI 2011
  CLSI Interpretation: Intermediate
[2]; Cd EUCAST 2011
  EUCAST Interpretation: Resistant
[2]; Table C1
  Diameter: 12 mm
[2]; Table C1, against Dmin Dmax
  Results: Resistant
[2]; Table C2
  diameter in mm: 12 mm
[3]
  Diameter: 23 mm
[3]; from diameter, against Dmin Dmax
  Results: Susceptible
[4]; EcR1, disk diffusion
  Diameter: 20 mm
[4]; EcR1, interpretation of the diameter against Dmin Dmax
  Results: Susceptible
[5]; Table F1
  Diameter: 21
[5]; Table F1, rows with a diameter
  Results: Susceptible
[5]; Table F2, diameters
  Diameter: 21 mm
[5]; from diameter, CA-SFM 2011
  CA-SFM Interpretation: Susceptible
[5]; from diameter, CLSI 2011
  CLSI Interpretation: Susceptible
[5]; from diameter, EUCAST 2011
  EUCAST Interpretation: Susceptible
[6]; PaR5, Table I1
  Diameter: 25 mm
[6]; PaR5, Table I1, against Dmin-Dmax
  Results: Susceptible
[6]; disk diffusion inhibition diameter, strain PaR5
  diameter in mm: 25 mm
[6]; disk diffusion, PaR5, versus critical diameter CA-SFM 2011
  CA-SFM Interpretation: Susceptible
[6]; disk diffusion, PaR5, versus critical diameter CLSI 2011
  CLSI Interpretation: Susceptible
[6]; disk diffusion, PaR5, versus critical diameter EUCAST 2011, for ** antibiotics the disk load differs and the EUCAST interpretation is not applicable
  EUCAST Interpretation: Susceptible
[7]; Cd CA-SFM 2011
  CA-SFM Interpretation: Susceptible
[7]; Cd CLSI 2011
  CLSI Interpretation: Susceptible
[7]; Cd EUCAST 2011
  EUCAST Interpretation: Susceptible
[7]; Table E1
  Diameter: 20 mm
[7]; Table E1, against Dmin Dmax
  Results: Susceptible
[7]; Table E2
  diameter in mm: 20 mm
[8]
  Initial MICs (mg/L): 2/2 mg/L
[9]
  Initial MICs (mg/L): 2/2 mg/L
[10]
  Initial MICs: 0.125 mg/L
[11]
  Initial MICs: 0.25 mg/L
[12]
  Initial MICs: 0.125 mg/L
[13]; EcR1, MIC against Cc CA-SFM 2011
  CA-SFM Interpretation: Susceptible
[13]; EcR1, MIC against Cc CLSI 2011
  CLSI Interpretation: Susceptible
[13]; EcR1, MIC against Cc EUCAST 2011
  EUCAST Interpretation: Susceptible
[13]; EcR1, Table A2
  MIC mg/L (diameter in mm): ≦1 mg/L
[13]; EcR1, VITEK 2, Table A1
  MIC mg/L: ≦1 mg/L
[13]; EcR1, interpretation of the MIC, Table A1
  Results: Susceptible
[14]; Cd CA-SFM 2011
  CA-SFM Interpretation: Susceptible
[14]; Cd CLSI 2011
  CLSI Interpretation: Susceptible
[14]; Cd EUCAST 2011
  EUCAST Interpretation: Susceptible
[14]; Table G1
  Diameter: 21 mm
[14]; Table G1, against Dmin-Dmax
  Results: Susceptible
[14]; Table G2
  diameter in mm: 21 mm
[15]
  MIC: 0.125 µg/mL
[16]
  MIC: 0.25 µg/mL
[17]
  MIC: 0.25 µg/mL
[18]; Cc CA-SFM 2011
  CA-SFM Interpretation: Susceptible
[18]; Cc CLSI 2011
  CLSI Interpretation: Susceptible
[18]; Cc EUCAST 2011
  EUCAST Interpretation: Susceptible
[18]; Table D1
  MIC mg/L: ≦0.5 mg/L
[18]; Table D1, from MIC
  Results: Susceptible
[18]; Table D2
  MIC mg/L: ≦0.5 mg/L
[19]; Cc CA-SFM 2011
  CA-SFM Interpretation: Resistant
[19]; Cc CLSI 2011
  CLSI Interpretation: Resistant
[19]; Cc EUCAST 2011
  EUCAST Interpretation: Resistant
[19]; Table H1
  MIC: ≧16
  Results: Resistant
[19]; Table H2
  MIC mg/L: ≧16 mg/L
[20]; EcR2, disk diffusion, Table B1
  Diameter: 12
[20]; EcR2, rows that print a diameter, Table B1
  Results: Resistant
[20]; EcR2, Table B2, diameters
  Diameter: 12 mm
[20]; EcR2, from diameter, CA-SFM 2011
  CA-SFM Interpretation: Resistant
[20]; EcR2, from diameter, CLSI 2011
  CLSI Interpretation: Resistant
[20]; EcR2, from diameter, EUCAST 2011
  EUCAST Interpretation: Resistant

From US20140066365A1, “USE OF CALIXARENES ASSOCIATED WITH AN ANTIBIOTIC IN THE TREATMENT OF BACTERIAL INFECTIONS” (priority 2011, published 2014)
